Reference: ChEMBL document CHEMBL1122060, “Synthesis and some pharmacological properties of Z-Tyr(SO3H)-Met-Gly-Trp-Met-Asp(Phe-NH2)-OH, a 32-beta-aspartyl analogue of cholecystokinin (pancreozymin) 27-33” (1982)
*1 amine or outer side, *2 acyl side, *3 side chain or, on linkers, in order; H or OH if unused. Where a SMILES comes first, the peptide text is derived from it. [ ]: non-standard residue; d: D form. βAsp = O=C(O)[C@H](CC(=O)[*:2])N[*:1]

Columns and labels:
Assay type in all cases: functional
[1] = species: Felis catus; assay: Pancreatic response measured as optical density of the pancreatic juice secreted 30 minutes following injection of 2 ug and diluted to 25 mL with physiological saline.
[2] = species: Felis catus; assay: Pancreatic response measured as optical density of the pancreatic juice secreted 30 minutes following injection of 0.5 ug and diluted to 25 mL with physiological saline.
[3] = species: Felis catus; assay: Pancreatic response measured as optical density of the pancreatic juice secreted 30 minutes following injection of 1 ug and diluted to 25 mL with physiological saline.

Structure (SMILES): CSCC[C@H](NC(=O)[C@H](Cc1c[nH]c2ccccc12)NC(=O)CNC(=O)[C@H](CCSC)NC(=O)[C@@H](N)Cc1ccc(O)cc1)C(=O)N[C@@H](CC(=O)N[C@@H](Cc1ccccc1)C(N)=O)C(=O)O (H-YMGWM[βAsp]F-NH2)
- Pancreatic response [1]: 1.47
- Pancreatic response [2]: 0.46
- Pancreatic response [3]: 0.97
